# In patent publication US20240279205A1, “NOVEL BENZIMIDAZOLE DERIVATIVE” (Carna Biosciences, Inc., priority 2020, published 2024):
# Target: T1, human STING (hSTING) (Homo sapiens, UniProt Q86WV6)
# T1 construct: host or cells: HEK-Blue ISG cells (HEK293-derived SEAP reporter line)
# Assay: Inhibition test of intracellular human STING (hSTING) pathway using SEAP reporter cells (HEK-Blue ISG), stimulation with Compound 3
# Assay type: cell-based
# Set-up: hSTING inhibitory activity: scale not given here
# Details: Compound 3 10 nM stimulation, 21 hours
# Outline: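 HEK-Blue ISG cells with IRF-inducible SEAP reporter, pretreated 1 h with compound (final 0.1 to 10 μM), then stimulated with Compound 3 (final 10 nM) for 21 h at 37° C. Supernatant SEAP measured colorimetrically; IC50 from log-concentration regression, normalized to stimulated (100%) and unstimulated (0%) controls.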
# T1 sequence (Q86WV6 whole entry H232R): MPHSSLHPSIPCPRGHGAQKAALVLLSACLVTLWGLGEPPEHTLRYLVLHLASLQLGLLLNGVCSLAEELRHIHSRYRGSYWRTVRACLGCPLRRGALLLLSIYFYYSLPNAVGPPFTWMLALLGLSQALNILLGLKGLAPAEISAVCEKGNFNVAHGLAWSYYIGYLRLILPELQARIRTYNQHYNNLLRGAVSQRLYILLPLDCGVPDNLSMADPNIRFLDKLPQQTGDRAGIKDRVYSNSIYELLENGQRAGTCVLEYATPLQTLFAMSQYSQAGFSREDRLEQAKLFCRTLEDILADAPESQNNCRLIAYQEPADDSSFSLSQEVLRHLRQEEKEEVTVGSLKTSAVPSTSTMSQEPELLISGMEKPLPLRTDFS
row,hSTING inhibitory activity,SMILES
1,* *,"C[C@@H](O)Cn1c(Nc2c[nH]c3ccc(Cl)cc23)nc2cc(C(F)(F)F)ccc21 [Embodiment 239, (R)-1-{2-[(5-chloro-1H-indol-3-yl)amino]-5-(trifluoromethyl)-1H-benzo[d]imidazol-1-yl}propan-2-oar]"
2,* *,"C[C@H](O)Cn1c(Nc2c[nH]c3ccc(Cl)cc23)nc2cc(C(F)(F)F)ccc21 [Embodiment 243, (S)-1-{2-[(5-chloro-1H-indol-3-yl)amino]-5-(trifluoromethyl)-1H-benzo[d]imidazol-1-yl}propan-2-oar]"
3,* * *,"CNn1c(Nc2c[nH]c3ccc(Cl)cc23)nc2cc(C(F)(F)F)cc(F)c21 [Embodiment 271, N2-(5-Chloro-1H-indol-3-yl)-7-fluoro-N1-methyl-5-(trifluoromethyl)-1H-benzo[d]imidazole-1,2-diamine]"
4,* * *,"CNn1c(Nc2c[nH]c3ccc(F)c(F)c23)nc2cc(C(F)(F)F)cc(F)c21 [Embodiment 272, N2-(4,5-difluoro-1H-indol-3-yl)-7-fluoro-N1-methyl-5-(trifluoromethyl)-1H-benzo[d]imidazole-1,2-diamine]"
5,* * *,"CNn1c(Nc2c[nH]c3cc(F)c(F)cc23)nc2cc(C(F)(F)F)cc(F)c21 [Embodiment 273, N2-(5,6-difluoro-1H-indol-3-yl)-7-fluoro-N1-methyl-5-(trifluoromethyl)-1H-benzo[d]imidazole-1,2-diamine]"
6,* * *,"Cn1c(Nc2c[nH]c3ccc(Cl)cc23)nc2cc(C(F)(F)F)c(F)c(F)c21 [Embodiment 274, N-(5-Chloro-1H-indol-3-yl)-6,7-difluoro-1-methyl-5-(trifluoromethyl)-1H-benzo[d]imidazol-2-amine]"
7,* * *,"CN(C)n1c(Nc2c[nH]c3ccc(Cl)cc23)nc2cc(C(F)(F)F)c(F)cc21 [Embodiment 275, N2-(5-Chloro-1H-indol-3-yl)-6-fluoro-N1,N1-dimethyl-5-(trifluoromethyl)-1H-benzo[d] imidazole-1,2-didiamine]"

# Same assay, conditions: Compound 3 10 nM stimulation, 21 hours, read-out: hSTING inhibitory activity
row,IC50 [µM],SMILES
1,1 to 10,"CC(C)Oc1ccc2nc(Nc3c[nH]c4ccc(Cl)nc34)n(C)c2c1 [Embodiment 209, N-(5-Chloro-1H-pyrrolo[3,2-b]pyridin-3-yl)-6-isopropoxy-1-methyl-1H-benzo[d]imidazol-2-amine]"
2,≥ 10,"Cn1c(Nc2c[nH]c3ccc(Cl)nc23)nc2ccc(OC(F)(F)F)cc21 [Embodiment 211, N-(5-Chloro-1H-pyrrolo[3,2-b]pyridin-3-yl)-1-methyl-6-(trifluoromethoxy)-1H-benzo[d] imidazol-2-amine]"
3,≥ 10,"Cn1cnc(-n2c(Nc3c[nH]c4ccc(Cl)cc34)nc3cc(C(F)(F)F)ccc32)c1 [Embodiment 227, N-(5-Chloro-1H-indol-3-yl)-1-(1-methyl-1H-imidazol-4-yl)-5-(trifluoromethyl)-1H-benzo[d] imidazole-2-amine]"
4,≥ 10,"CN(C)C(=O)Cn1c(Nc2c[nH]c3ccc(Cl)cc23)nc2cc(C(F)(F)F)ccc21 [Embodiment 229, 2-{2-[(5-chloro-1H-indol-3-yl)amino]-5-(trifluoromethyl)-1H-benzo [d]imidazol-1-yl}-N,N-dimethyl Acetamide]"
5,1 to 10,"CS(=O)(=O)CCn1c(Nc2c[nH]c3ccc(Cl)cc23)nc2cc(C(F)(F)F)ccc21 [Embodiment 230, N-(5-Chloro-1H-indol-3-yl)-1-[2-(methylsulfonyl)ethyl]-5-(trifluoromethyl)-1H-benzo[d] imidazol-2-amine]"
6,1 to 10,"CC(C)(O)Cn1c(Nc2c[nH]c3ccc(Cl)cc23)nc2cc(C(F)(F)F)ccc21 [Embodiment 234, 1-{2-[(5-chloro-1H-indol-3-yl)amino]-5-(trifluoromethyl)-1H-benzo [d]imidazol-1-yl}-2-methylpropane-2-oar]"
7,1 to 10,"FC(F)(F)c1ccc2c(c1)nc(Nc1c[nH]c3ccc(Cl)cc13)n2N1CCOCC1 [Embodiment 235, N-(5-Chloro-1H-indol-3-yl)-1-morpholino-5-(trifluoromethyl)-1H-benzo[d]imidazol-2-amine]"
